Experimental data from publication PMC12011786, “Pharmacokinetics and stability of methoxyflavones from Kaempferia parviflora in Thai native roosters” (Frontiers in Veterinary Science, 2025).
Like-named read-outs stand apart in the source and are kept apart here.

Test: Pharmacokinetics of methoxyflavones after single oral administration of KP ethanolic extract in roosters
Type: in vivo, Thai native roosters (Pradu Hang Dum breed)
Settings: for AUC / Cmax / Tmax / half-life / k el: male, Thai native Pradu Hang Dum, whole blood; for AUC: po; for Cmax / Tmax / half-life / Cl / Vd: n = 9; for k el: n = 9, read-out: Ke (converted)
Procedure: Twenty-seven male Thai native Pradu Hang Dum breed roosters were selected for this study. The sample size was calculated by using the G*power program with the following parameters: α = 0.05, power of test = 0.8, standard deviation = 0.05, and effect size = 0.6. The sample size was nine in each group. […] All animals were obtained from the Research and Development Network Center of Animal Breeding and Omics at Khon Kaen University, Thailand. The roosters were housed in separate cages (60 × 45 × 45 cm) within an open-house system. They were fed a daily commercial diet of 130 g, containing 16% crude protein. Water was provided ad libitum throughout the study.
Blood samples (1 mL) were collected from the brachial vein of each rooster after gentle restraint. The collected blood was immediately transferred into a 1.5 mL microtube containing 10% heparin and gently inverted several times to ensure thorough mixing and prevent clot formation.
The roosters were randomly divided into three groups (n = 9 per group) and orally administered KP extract at different doses: 100, 150, and 200 mg/kg of body weight. The KP extract was prepared by dissolving in a solution of 28% propylene glycol, 35% polyethylene glycol 400, 2% ethanol, and deionized water (added until the total volume was 100%). For the method of animal administration, two individuals administered the KP extract to the chickens. One person restrained each chicken by holding its wings and legs, while the other administered the extract orally via a 10 mL syringe, according to body weight.
After oral administration, blood samples were collected at certain time intervals (0.5, 1, 2, 4, 6, and 12 h). The samples were then stored at −20°C until further analysis.
To extract methoxyflavones from the blood samples, all samples were extracted by liquid–liquid extraction two times using acetonitrile. Each sample was vortexed for 2 min and sonicated for 5 min with 1 mL of acetonitrile. After centrifugation at 2,000 × g for 2 min, the supernatant was transferred to clean microtubes, evaporated to dryness, and reconstituted with 200 μL of methanol. The samples were then filtered through 0.45-μm syringe filters and analyzed using an HPLC assay. Pharmacokinetic parameters were determined using the PKSolver add-in program ([21]).

[1] = 100 mg/kg, single oral KP extract 100 mg/kg, blood, n = 9, read-out: AUC
[2] = 150 mg/kg, single oral KP extract 150 mg/kg, blood, n = 9, read-out: AUC
[3] = 200 mg/kg, range over oral KP extract doses 100, 150, 200 mg/kg, read-out: area under the curve (AUC)
[4] = 200 mg/kg, single oral KP extract 200 mg/kg, blood, n = 9, read-out: AUC
[5] = single oral KP extract 100 mg/kg, blood
[6] = single oral KP extract 150 mg/kg, blood
[7] = single oral KP extract 200 mg/kg, blood

Compound | AUC [1] [ng·h/mL] | AUC [2] [ng·h/mL] | AUC [3] [ng·h/mL] | AUC [4] [ng·h/mL] | Cmax [5] [ng/mL] | Tmax [5] [h] | half-life [5] [h] | k el [5] [s⁻¹] | Cmax [6] [ng/mL] | Tmax [6] [h] | half-life [6] [h] | k el [6] [s⁻¹] | Cmax [7] [ng/mL] | Tmax [7] [h] | half-life [7] [h] | k el [7] [s⁻¹] | Cl [5] [mL/min/kg] | Vd [5] [L/kg] | Cl [6] [mL/min/kg] | Vd [6] [L/kg] | further results
COc1cc(OC)c2c(=O)cc(-c3ccccc3)oc2c1 [DMF, 5,7-dimethoxyflavone] | 1020 ± 230 | 1450 ± 170 | 1020 to 1680 | 1680 ± 570 | 340 ± 100 | 1.17 ± 0.37 | 2.56 ± 0.49 | 7.78e-05 | 500 ± 50 | 1.33 ± 0.49 | 2.57 ± 0.2 | 8.33e-05 | 540 ± 80 | 1.17 ± 0.37 | 2.6 ± 0.28 | 9.17e-05 | 137 ± 29.7 | 18.9 ± 1.78 | 120 ± 27.7 | 19.1 ± 1.78 | Cl [7]: 123 ± 36.8 mL/min/kg; Vd [7]: 19.5 ± 2.28 L/kg
COc1cc(OC)c2c(=O)c(OC)c(-c3ccc(OC)c(OC)c3)oc2c1 [PMF, 3,5,7,3′,4′-pentamethoxyflavone] | 2620 ± 340 | 3010 ± 420 | 2620 to 3060 | 3060 ± 570 | 640 ± 60 | 1.83 ± 0.37 | 2.03 ± 0.34 | 9.72e-05 | 810 ± 120 | 1.8 ± 0.4 | 2.24 ± 0.71 | 0.000111 | 830 ± 110 | 1.83 ± 0.37 | 2.27 ± 0.93 | 0.000114 | 41 ± 7 | 7.78 ± 0.63 | 47.2 ± 12.7 | 8.24 ± 1.14 | Cl [7]: 53.7 ± 8.67 mL/min/kg; Vd [7]: 8.69 ± 1.25 L/kg
COc1ccc(-c2cc(=O)c3c(OC)cc(OC)cc3o2)cc1 [TMF, 5,7,4′-trimethoxyflavone] | 1200 ± 150 | 1360 ± 150 | 1200 to 1450 | 1450 ± 120 | 380 ± 90 | 1.25 ± 0.56 | 2.15 ± 0.71 | 8.33e-05 | 530 ± 60 | 1.25 ± 0.4 | 2.01 ± 0.31 | 9.44e-05 | 590 ± 60 | 1.33 ± 0.47 | 2.03 ± 0.37 | 0.000103 | 76.3 ± 9.83 | 17.8 ± 5.61 | 97.3 ± 11.2 | 20 ± 3.32 | Cl [7]: 82.5 ± 26.3 mL/min/kg; Vd [7]: 12.7 ± 1.73 L/kg
